The text below walks through data of patent publication EP4349333A1, “USE OF AMINOPYRIDINE, IN PARTICULAR AMIRAMPRIDINE, IN THE TREATMENT OF VIRALLY ASSOCIATED FATIGUE” (Böhmeke, Thomas, priority 2022, dated 2024).

For series [1], the system named is Lambert-Eaton-Myasthenie-Syndrom (LEMS). Particulars: cited from earlier work.
In series [2] the test system is Fatigue-Symptomatik nach SARS-COV-2-Infektion. Briefly: Double-blind withdrawal trial, verum and placebo for 3 days each. It counts as in vivo, Patienten. Particulars: Pat. 2.1; on Amifampridin at start of verum phase (4 x 5 mg per day, days 1-3). The protocol:
(§1) In den nachfolgend genannten Anwendungsbeispielen wurde 3,4-Diaminopyridin Amifamprindin (Formulierung als Fertigarzneimittel) verabreicht. Im Rahmen der doppelt-blind Studie wurden gleich aussende Kapseln mit Amifampridin oder Placebo apothekenseitig verblindet zubereitet, wobei nur apothekenseitig bekannt war welche Kapseln Wirkstoff oder Placebo enthielten.
Bei Pat. 2.1 und 2.2 waren zur Rekonvaleszenz eine Dauermedikation mit jeweils 20 mg Amifampridin pro Tag erforderlich und boten damit Voraussetzungen für einen doppelt-blinden Auslassversuch über jeweils 3 Tage.
Pat. 2.1 mit Verum an Tagen 1-3, nachfolgend Placebo an den Tagen 4-6: Pat. (Pat. 2.1) mit Bell-Score 90 begann bereits mit Amifampridin, wie vorstehend beschrieben, und setzte diese mit Blister mit 6 Tagesdosen je Tag ein Fach mit Kapseln für 3 Tage mit je 4 mal 5 mg Amifampridin fort. Die Dosierung betrugt jeweils für 3 Tage Placebo mit je 4mal Placebo-Kapseln für Patient 1 und 2 (Verum und Placebo).

Series [3] concerns Fatigue-Symptomatik bei Post-Covid-Syndrom. Briefly: Further study / case series Pat. 1-5: Bell-Score and sleep need in post-Covid syndrome. It counts as in vivo, Patienten. The source says: (§2) Die Bell-score (oder skala) ist ein Massstab der Behinderung bei ME & CFS. Auch für Long Covid-Patient:innen ist sie geeignet. Die Bell-Skala ist individuell, da jeder Patientinnen eine unterschiedliche Belastungsintoleranz aufweist und das Erleiden von schweren Symptomen in Ruhe verhältnismässig unterschiedlich sein kann.
Es wurde eine weitere Studie an einer Patientengruppe durchgeführt.
Die Prävalenz eines Post-Covid-Syndroms (PCS) liegt bei 10-15 % nach SARS-COV-2-Infektion, neben spezifischen Organerkrankungen treten vielfältige funktionelle Beschwerden auf, vorrangig eine Fatigue-Symptomatik. Diese ist gekennzeichnet durch persistierende Müdigkeit, Schwäche, kognitive Defizite sowie vermehrtem Schlafbedürfnis. In dieser Studie bzw. Fallserie wird der Effekt von Amifampridin bei Patienten mit PCS beschrieben, die unter unphysiologisch gesteigertem Schlafbedürfnis sowie eingeschränkter Kognition litten. Zur Evaluation wurde der Bell-Score verwendet, der auf die Einschränkung der Vigilanz, körperlichen Belastbarkeit und Berufstätigkeit fokussiert.

In series [4] the test system is Fatigue-Symptomatik nach SARS-COV-2-Infektion. Briefly: Patients 2.1 to 2.5: Bell-Score and sleep need with Amifampridin (Fig. 1 and 2). It counts as in vivo, Patienten.
Description: as §2
Die nachfolgenden Dosierungen der Patienten 2.1 bis 2.5 und die veränderten Bell-Sore Werte sowie das Schlafbedürfnis in Stunden sind in den Figuren 1 und 2 dargestellt (Fig. 1 Bells-Sore mit und ohne Amifampridin, Patienten 2.1 bis 2.5, Fig. 2: kumulierte Schlafzeit in 24 h).

Series [5] has as its system Fatigue-Symptomatik nach Covid-Infektion. Briefly: Off-label case reports (Fall 1-3) in fatigue after Covid infection. It counts as in vivo, Patienten.
Description: as §1
Ruhebedürfnis bis zu 20 Stunden pro Tag (brain fog) sowie ausgeprägter Konzentrationsschwäche.
Im Fall 2 wird eine Patientin beschrieben, die ebenfalls unter einer gravierenden Fatigue-Symptomatik nach Covid-Infektion 5/22 litt, eine zuzuordnende neurologische oder internistische Grunderkrankung bestand nicht. […] Die nachfolgenden Labor- und EKG-Kontrollen zur Erfassung substanzassoziierter Komplikationen waren unauffällig.
Im Fall 3 wird ein Patient beschrieben, der nach zweimaliger Covid-Infektion unter Fatigue-Symptomatik mit einem Schlafbedürfnis bis zu 2 x 9 Stunden pro Tag litt.

Series [6] has as its system Fatigue-Symptomatik bei MS-Patienten. The conditions noted are these: described in the literature; cited from earlier work.
Setting [7] is: Pat. 5 (LEMS), 3 or 4 x 5 mg as daily dose.
Where [8] appears, read: Pat. 2.5 (LEMS), initial 3 x 5 mg.

As for `Nc1ccncc1N` [Amifampridin, Pyridin-3,4-diamin], the “koindizierte Fatigue” value in series [1] (LEMS-Patienten, stated as known) is given as “Besserung”. The Bell-Score in series [2] was found to be 90; in series [3] (Pat. 1, after 3 intakes of 5 mg over 24 h, before 20 to 40), 100; in series [3] (Pat. 2, after 3 doses of 5 mg, before 40), 100; in series [3] (Pat. 3, after one intake of 5 mg, before 40) it was 100; in series [3] (Pat. 4, 3 x 5 mg over 24 h, before 20, Post-Covid-Myokarditis), 50; in series [4] (Pat. 2.1, after single intake of 5 mg, before 20 to 40), 100. Also, the Bell-Score in series [4] (Pat. 2.2, after 5 mg, before 40) was 80; in series [4] (Pat. 2.3, after 5 mg, before 40), 100; in series [4] (Pat. 2.5 (LEMS), initial 3 x 5 mg, before 10) it was 80; in series [4] (Patientin 2.4, after 5 mg, before 20, Post-Covid-Myokarditis), 50. The Schlafbedürfnis in series [3] (Pat. 1, after 3 intakes of 5 mg over 24 h, before 12) was 7 Stunden / 24h; in series [3] (Pat. 2, after 3 doses of 5 mg, before 12), 7,5 Stunden /24 h; in series [3] (Pat. 3, after one intake of 5 mg, before 11 to 12), 7-9 Stunden; in series [3] (Pat. 5 (LEMS), 3 or 4 x 5 mg as daily dose, before 16 to 18), 8-9 Stunden / 24h; in series [4] (Pat. 2.1, after single intake of 5 mg, before 12) it was 7 Stunden / 24h; in series [4] (Pat. 2.2, after 5 mg, before 11-12), 7-9 Stunden. Further, the Schlafbedürfnis in series [4] (Pat. 2.3, after 5 mg, before 12) is recorded as 7,5 Stunden /24 h; in series [4] (Pat. 2.5 (LEMS), initial 3 x 5 mg, before 16-18), 8-9 Stunden / 24h. Besides, the Vigilanz result in series [3] (Pat. 2, after 3 doses of 5 mg) is listed as “uneingeschränkte Vigilanz”; in series [4] (Pat. 2.3, after 5 mg) it was “uneingeschränkte Vigilanz”. Also, the “duration of the effect” value in series [3] (Pat. 3, one intake of 5 mg) is ~36 Stunden; in series [4] (Pat. 2.2, 5 mg), ~36 Stunden. Moreover, the Fatigue result in series [3] (setting [7]) is on record as “sistierte die Fatigue”; in series [4] (setting [8]) it was “sistierte die Fatigue”; in series [5] (Fall 2, Tagesdosis 3 x 5 mg) it was “sistiert die vorbestehende Fatigue vollständig”. Besides, the “muskuläre Belastbarkeit” value in series [3] (setting [7]) and in series [4] (setting [8]) was “gebesserte muskuläre Belastbarkeit” throughout. In addition, the Fatigue-Symptomatik result in series [3] (patient group of the further study, Post-Covid-Syndrom) is “reduzierte Fatigue-Symptomatik”; in series [5] (Fall 1, since Covid infection, sleep/rest need up to 20 Stunden pro Tag before), “schlagartige Besserung”; in series [5] (Fall 2, 5 mg) it was “komplette Besserung”. Moreover, the “Bell-Score in Bezug auf die muskulären Defizite” value in series [4] (Pat. 2.5 (LEMS), 3 x 20 mg plus 5 mg if needed (60 to 70 mg per day)) is “ca. 20”. Moreover, the “muskuläre Defizite” value in series [5] (Fall 1) is reported as “umgehende Besserung”. In addition, the “Labor- und EKG-Kontrollen zur Erfassung substanzassoziierter Komplikationen” value in series [5] (Fall 2) is recorded as “unauffällig”. Moreover, the Konzentrationsfähigkeit result in series [5] (Fall 2, 5 mg) is listed as “vollständiger Restitution”; in series [5] (Fall 3, 5 mg), “schlagartigen Besserung”. The “zuzuordnende Nebenwirkung” value in series [5] (Fall 2, 5 mg) is “leichte periorale Parästhesien”. In addition, in series [5] (Fall 3, 5 mg), the “Nebenwirkung (periorale Parästhesien)” value is recorded as “transiente periorale Parästhesien mit sehr geringer Intensität”. The “Schlaf- und Ruhebedürfnis” value in series [5] (Fall 3, 5 mg) is recorded as “physiologischem”.
As to `Nc1ccncc1N` [Amifampridine Phosphate (Firdapse), Amifampridine Phosphate], the “koinzidente Fatigue” value in series [1] (LEMS, 20 bis 80 mg als Tagesdosen, J Clin Neuromuscul Dis. 2019) was “Besserung einer koinzidenten Fatigue”.
Consider `Nc1ccncc1` [Fampridin], for which the “begleitende Fatigue-Symptomatik” value in series [6] is “Besserung”.
